Data published in patent US20250108053A1, “RIBOCICLIB PHARMACEUTICAL COMPOSITIONS” (Novartis AG, priority 2022, published 2025).

Experiment: Preliminary studies of ribociclib succinate in oral solutions: pH, solubility, preservatives
Excerpt: To achieve a clear solution of ribociclib succinate upon reconstitution, sufficient quantity of acid is needed to adjust the pH of the liquid into an acidic range for ribociclib succinate to completely solubilize. For use in the present invention, suitable solubilizers are in the form of an acid.

[1] = oral solutions of ribociclib succinate

C/C=C/C=C/C(=O)[O-].[K+] [potassium sorbate]
pH required by the preservative [1]: about 3.5

CN(C)C(=O)c1cc2cnc(Nc3ccc(N4CCNCC4)cn3)nc2n1C1CCCC1.O=C(O)CCC(=O)O [ribociclib succinate]
Solubility in basic pH as compared to acidic pH: limited solubility in basic pH | pH range in which a clear solution was achieved (ribociclib succinate in oral solutions): 3.5-4.5

O=C([O-])c1ccccc1.[Na+] [sodium benzoate]
Observation in oral solution formulations with the preservative [1]: precipitation was observed
